# Data published in patent publication US9255132B2, “Angiopoietin derived peptides” (Compugen Ltd., priority 2008, dated 2016).
# Residues, ends and D or L forms follow the SMILES beside them.
# Biological target: T1, human Ang2 (Homo sapiens, UniProt O15123)
# T1 construct: purchased R&D Systems 623-AN-025/CF
# T1 sequence (O15123 19-496): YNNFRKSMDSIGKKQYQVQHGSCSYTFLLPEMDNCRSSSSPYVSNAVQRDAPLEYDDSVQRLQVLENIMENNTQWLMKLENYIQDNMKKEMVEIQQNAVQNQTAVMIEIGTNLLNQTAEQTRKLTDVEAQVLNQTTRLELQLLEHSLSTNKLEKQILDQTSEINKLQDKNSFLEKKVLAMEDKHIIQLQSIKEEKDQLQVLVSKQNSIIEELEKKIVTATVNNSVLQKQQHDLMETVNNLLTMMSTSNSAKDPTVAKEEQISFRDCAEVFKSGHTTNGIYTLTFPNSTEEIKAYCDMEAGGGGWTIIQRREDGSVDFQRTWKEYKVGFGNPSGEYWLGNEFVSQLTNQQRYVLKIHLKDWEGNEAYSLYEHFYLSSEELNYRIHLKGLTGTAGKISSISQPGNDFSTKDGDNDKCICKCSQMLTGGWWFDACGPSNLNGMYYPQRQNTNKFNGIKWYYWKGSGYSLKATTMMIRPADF
# Assay: BIACORE (SPR) binding of peptides to immobilized recombinant Ang2
# Details: CM5 chip, 10-50 μM peptide
# Excerpt: The capability of CGEN-H2 [SEQ ID NO: 1], CGEN-H3 [SEQ ID NO: 2], CGEN-A8 [SEQ ID NO: 3], CGEN-H7 [SEQ ID NO: 4], CGEN-G4 [SEQ ID NO: 5], CGEN-G6 [SEQ ID NO: 6], CGEN-F9 [SEQ ID NO: 7], CGEN-F12 [SEQ ID NO: 8], CGEN-C6-30 [SEQ ID NO: 9], CGEN-All [SEQ ID NO: 10], and CGEN-G2 [SEQ ID NO: 11] to specifically bind to recombinant Ang1, Ang2, and Ang4 was investigated using the BIACORE technology, measuring protein-protein interaction and binding affinity (Wendler et al 2005, Anal Bioanal Chem, 381: 1056-1064). The technology is based on surface plasmon resonance (SPR), an optical phenomenon that enables detection of unlabeled interactants in real time. The SPR-based biosensors can be used in determination of active concentration, screening and characterization in terms of both affinity and kinetics.
# Peptide-protein binding was analyzed using surface plasmon resonance. Analysis of the to interaction between CGEN-H2 [SEQ ID NO: 1], CGEN-H3 [SEQ ID NO: 2], CGEN-A8 [SEQ ID NO: 3], CGEN-H7 [SEQ ID NO: 4], CGEN-G4 [SEQ ID NO: 5], CGEN-G6 [SEQ ID NO: 6], CGEN-F9 [SEQ ID NO: 7], CGEN-F12 [SEQ ID NO: 8], CGEN-C6 [SEQ ID NO: 9], CGEN-A11 [SEQ ID NO: 10], and CGEN-G2 [SEQ ID NO: 11] peptides and recombinant human Ang1 carrier-free (R&D Systems, Cat#923-AN-025/CF, Lot#FHW1507031), human Ang2 carrier-free (R&D Systems, Cat#623-AN-025/CF, Lot#BNO0457121), and human Ang4 carrier-free (R&D Systems, Cat#964-AN-025/CF, Lot#ELM025121) was conducted using the BIAcore biosensor (Pharmacia Biosensor, Uppsala, Sweden). The recombinant Ang1, Ang2, and Ang4 were immobilized directly to a CM5 sensor chip. Solutions containing 10-50 μM of CGEN-H2 [SEQ ID NO: 1], CGEN-H3 [SEQ ID NO: 2], CGEN-A8 [SEQ ID NO: 3], CGEN-H7 [SEQ ID NO: 4], CGEN-G4 [SEQ ID NO: 5], CGEN-G6 [SEQ ID NO: 6], CGEN-F9 [SEQ ID NO: 7], CGEN-F12 [SEQ ID NO: 8], CGEN-C6 [SEQ ID NO: 9], CGEN-A11 [SEQ ID NO: 10], and CGEN-G2 [SEQ ID NO: 11] peptides were injected into the sample chamber of the BIACORE device at a rate of […] and the interaction was monitored using surface plasmon resonance.
# Solutions containing different concentrations of CGEN-G6 [SEQ ID NO: 6], CGEN-F9 [SEQ ID NO: 7], CGEN-F12 [SEQ ID NO: 8], CGEN-A11 [SEQ ID NO: 10], and CGEN-G2 [SEQ ID NO: 11] peptides (as indicated in Table 2) were injected into the sample chamber of the BIACORE device at a rate of […] and the interaction was monitored using surface plasmon resonance. As a background, the solutions were also injected onto an empty flow cell with no immobilized ligand and the in binding levels achieved were subtracted. Data was analyzed using BIAevaluation software. The affinity constant of the interaction between CGEN-G6 [SEQ ID NO: 6], CGEN-F9 [SEQ ID NO: 7], CGEN-F12 [SEQ ID NO: 8], CGEN-C6 [SEQ ID NO: 9], CGEN-A11 [SEQ ID NO: 10], and CGEN-G2 [SEQ ID NO: 11] and Ang1, Ang2, or Ang4 was determined by direct kinetic analysis. The 1:1 Langmuir binding model was used to fit kinetic data.
# Table 2 summarizes results of analysis of CGEN-G6 [SEQ ID NO: 6], CGEN-F9 [SEQ ID NO: 7], CGEN-F12 [SEQ ID NO: 8], CGEN-A11 [SEQ ID NO: 10], and CGEN-G2 [SEQ ID NO: 11] interaction with Ang1, Ang2, or Ang4. Kinetic measurements were done at the indicated concentration range, and they are presented as KD (M). CGEN-F12 [SEQ ID NO: 8] bound to Ang1 and Ang4 with high affinity. The specificity of this binding is not clear.
row,SMILES,binding to immobilized Ang2 (in words)
1,"CC(=O)N[C@@H](CCC(=O)O)C(=O)N[C@H](C(=O)N[C@@H](Cc1ccccc1)C(=O)N[C@@H](CC(C)C)C(=O)N[C@@H](CO)C(=O)N[C@H](C(=O)N[C@@H](CC(N)=O)C(=O)N[C@@H](CCCCN)C(=O)N[C@@H](CC(C)C)C(=O)N[C@@H](CCC(=O)O)C(=O)N[C@@H](CC(N)=O)C(=O)N[C@@H](CCC(N)=O)C(N)=O)[C@@H](C)O)[C@@H](C)O [CGEN-A11, ETFLSTNKLENQ] (Ac-ETFLSTNKLENQ-NH2)",capable of binding
2,CC[C@H](C)[C@H](NC(=O)[C@H](C)NC(=O)[C@H](CCCNC(=N)N)NC(=O)[C@H](CCC(=O)O)NC(=O)[C@H](CC(C)C)NC(=O)[C@H](CCCCN)NC(=O)[C@H](CCCCN)NC(=O)[C@H](CC(C)C)NC(=O)[C@H](Cc1c[nH]c2ccccc12)NC(=O)[C@H](CCC(N)=O)NC(=O)[C@@H](NC(=O)[C@H](CC(N)=O)NC(=O)[C@H](CC(N)=O)NC(=O)[C@H](CCC(N)=O)NC(=O)[C@H](CC(C)C)NC(=O)[C@H](C)NC(=O)[C@H](CCC(N)=O)NC(=O)[C@H](CCC(=O)O)NC(=O)[C@H](CC(C)C)NC(=O)[C@H](CCC(N)=O)NC(=O)[C@H](CCCCN)NC(=O)[C@@H](NC(=O)[C@H](CCC(N)=O)NC(=O)[C@H](CCC(N)=O)NC(=O)[C@@H](NC(C)=O)[C@@H](C)O)C(C)C)[C@@H](C)O)C(=O)N[C@@H](CCCCN)C(=O)N[C@H](C(=O)N[C@H](C(=O)N[C@@H](CC(C)C)C(N)=O)[C@@H](C)CC)[C@@H](C)O [CGEN-G2] (Ac-TQQVKQLEQALQNNTQWLKKLERAIKTIL-NH2),capable of binding
3,CSCC[C@H](NC(=O)[C@H](CC(C)C)NC(=O)[C@H](CC(=O)O)NC(C)=O)C(=O)N[C@@H](CCC(=O)O)C(=O)N[C@H](C(=O)N[C@H](C(=O)N[C@@H](CC(N)=O)C(=O)N[C@@H](CC(N)=O)C(=O)N[C@@H](CC(C)C)C(=O)N[C@@H](CC(C)C)C(=O)N[C@H](C(=O)N[C@@H](CCSC)C(=O)N[C@@H](CCSC)C(=O)N[C@@H](CO)C(=O)N[C@H](C(=O)N[C@@H](CO)C(=O)N[C@@H](CC(N)=O)C(=O)N[C@@H](CO)C(=O)N[C@@H](C)C(=O)N[C@@H](CCCCN)C(=O)N[C@@H](CC(=O)O)C(N)=O)[C@@H](C)O)[C@@H](C)O)C(C)C)[C@@H](C)O [CGEN-G6] (Ac-DLMETVNNLLTMMSTSNSAKD-NH2),capable of binding
